# Results taken from US20240150372A1 (priority 2021, published 2024).
# Where two headings read alike, the source gives them in different places.
# Assays:
# rKOR = rKOR (Rattus norvegicus (Rat), UniProt P34975); assay: rKOR agonist assay (cAMP), rKOR-CHO; type: cell-based
# Description: EC50 values and % efficacy of control agonist (KOR: U-50,488) maximal response at 1 μM for rKOR-CHO were obtained by screening the selected compounds via commercially available assay services.
# hSERT = hSERT (Homo sapiens (Human), UniProt P31645); assay: hSERT fluorometric transporter inhibition assay (APP+ uptake, hSERT-HEK); type: cell-based
# Description: (§1) Inhibition assays of transporters (hSERT and rVMAT2) were performed according to the following protocol.
# (§2) Cell culture preparation and maintenance. Stably transfected hSERT-HEK and rVMAT2-HEK cellular cultures were maintained in Dulbecco's Minimal Essential Medium (DMEM) with GlutaMAX (Gibco) with the following additions: 10% (v/v) Fetal Bovine Serum (FBS, Atlanta Biologicals), 100 U/mL Penicillin (Gibco), and 10 μg/mL Streptomycin (Gibco). With regards to the former cell lineage, an additional ingredient, 500 μg/mL Geneticin (G418) (Gibco) was included to preserve the respective transgene.
# (§3) hSERT and rVMAT2 fluorometric screening assays. For both hSERT and rVMAT2 screening experiments, respective singly transfected cells were seeded at a density of 0.09×10^6 cells/well in poly-D-Lysine (Alamanda Polymers, Inc.) coated white solid-bottom 96-well plates (Costar). Growth was permitted for approximately 44 hours in said aqueous media and at an incubation environment of 37° C. and 5% Carbon Dioxide. At the beginning of the experiment, the cellular growth solution was aspirated, and individual cells were rinsed with 150 μL of 1×Dulbecco's Phosphate Buffered Saline (PBS; HyClone). 63 μL of Experimental Media (consisting of the following contents: DMEM without phenol red but with 4.5 g/L of D-Glucose (Gibco), 1% (v/v) FBS (Atlanta Biologicals), 100 U/mL Penicillin (Gibco), and 10 μg/mL Streptomycin (Gibco)) with 2×tiered concentrations of inhibitor (or DMSO, the vehicle of these experiments) were added to the respective wells. […] A final solution of 120 μL of PBS is finally added to all corresponding wells for cell maintenance before undergoing fluorescence uptake reading by a BioTek H1MF plate reader. […]
# (§4) Data analysis. […] Respective inhibitor values were first subtracted from vehicular values to quantify the respective fluorescence uptake. This metric was then analyzed using the dose-response-inhibitor nonlinear curve fitting model ([inhibitor] vs response (three parameters)) as supplied by GraphPad Prism 8 software. […]
# rVMAT2 = rVMAT2 (Rattus norvegicus (Rat), UniProt Q01827); assay: rVMAT2 fluorometric transporter inhibition assay (FFN206 uptake, rVMAT2-HEK); type: cell-based
# Description: as §1, §2, §3, §4
# C57BL/6J mice = assay: Mouse tail-flick test; type: in vivo; details: s.c., cumulative doses 1-30 mg/kg, 30 min post injection
# Description: C57BL/6J (8-12 weeks, 22-31 g) were purchased from the Jackson Laboratory (Bar Harbor, ME) and housed 5 mice per cage with food and water available ad libitum. Mice were maintained on a 12-hr light/dark cycle (lights on 7:00-19:00) and all testing was done in the light cycle. Temperature was kept constant at 22±2° C., and relative humidity was maintained at 50±5%. Mice were moved to the testing room 30 minutes before the experiment to allow for acclimation. The body weight of each mouse and base tail-flick value were recorded. Mice were administered a 1 mg/kg s.c. dose of compound solution (volume of injection 220-310 μL based on body weight). After injection mice were returned to the home cage and allowed to rest for 30 minutes. Thirty minutes post injection the tail-flick measurement was taken using thermal stimulation via IR on a Ugo Basile unit set to 52 PSU (ten seconds was used as a maximum latency to prevent tissue damage). Mice were then administered 3 mg/kg s.c. dose, allowed to rest for 30 minutes, followed by another tail-flick measurement. […] Tail-flick latencies for the different doses were expressed as percentage of maximum potential effect (% MPE) by subtracting the experimental value by the base tail flick value then dividing by the difference between the maximum possible latency (10 seconds) and the base tail-flick value and finally multiplying by 100. […]
# [1] = test system: adult human primary ventricular myocytes; assay: Pro-arrhythmia assay in adult human primary ventricular cardiomyocytes (contractility); type: cell-based; details: 0.1-10 μM, 1 Hz pacing
# Description: Cardiac adverse effects of iboga alkaloids and related analogs was assessed via a commercially available assay, procedure reported in (Nguyen, N. et al. 2017; Page, G. et al. 2016) (FIG. 1).
# Isolation of adult human primary ventricular myocytes. Adult human primary ventricular myocytes were isolated from ethically consented donor hearts. A proprietary protocol was employed to enzymatically digest hearts and isolate cardiomyocytes.
# Contractility recordings procedures. Cardiomyocytes were placed in a perfusion chamber mounted on the stage of inverted Motic AE31E (IonOptix) or Olympus IX83P1ZF microscopes (MyoBlazer) and continuously perfused at approximately 2 ml/min with recording buffer heated to 35±1° C. using an in-line heater from Warner Instruments (IonOptix & MyoBlazer) and allowed to equilibrate for 5 minutes under constant perfusion. The cells were field stimulated with supra-threshold voltage at a 1 Hz pacing frequency, with a bipolar pulse of 3 ms duration, using a pair of platinum wires placed on opposite sides of the chamber connected to a MyoPacer stimulator. […] The IonWizard software or MyoBLAZER Analysis software analyzed the periodicity in the optical density of these bands by means of a fast Fourier transform algorithm.
# Pro-arrhythmia markers. […] STV (STV=Σ|CAn+1−CAn|(20×√2)^−1) was calculated with the last 20 transients of each control and test article concentration period. […]
# [2] = biological target: human ethera-go-go-related gene (hERG) potassium channels (Homo sapiens (Human), UniProt Q12809); details: Alper, K. et al 2016; cited from earlier work
# human cardiomyocytes = details: Rubi, L. et al 2017; cited from earlier work
# male F344 rats [3] = assay: Morphine self-administration, repeated dosing regimen; type: in vivo, rat
# male F344 rats [4] = assay: Morphine intravenous self-administration, single administration; type: in vivo, rat; details: 40 mg/kg IP
compound,measurement,setting,value
CCC1CC2C[C@H]3c4oc5ccc(O)cc5c4CCN2C13 (stereo partly drawn) [(16R)-Oxa-noribogaine],"% efficacy of control agonist (KOR: U-50,488) maximal response at 1 μM",rKOR; cAMP,(96%)
same,EC50,"rKOR; cAMP, read-out: rKOR (EC50)",< 10 nM
same,IC50,"hSERT; ± SEM, read-out: hSERT (IC50)",450 ± 70 nM
same,IC50,"rVMAT2; ± SEM, read-out: rVMAT2 (IC50)",140 ± 30 nM
same,"ED50, analgesia in tail-flick test",C57BL/6J mice,2.8 mg/kg
CCC1CC2C[C@@H]3c4oc5ccc(O)cc5c4CCN2C13 (stereo partly drawn) [(16S)-Oxa-noribogaine],"% efficacy of control agonist (KOR: U-50,488) maximal response at 1 μM",rKOR; cAMP,(25%)
same,EC50,"rKOR; cAMP, read-out: rKOR (EC50)",~300 nM
same,IC50,"hSERT; ± SEM, read-out: hSERT (IC50)",2900 ± 680 nM
same,IC50,"rVMAT2; ± SEM, read-out: rVMAT2 (IC50)",2800 ± 550 nM
same,"ED50, analgesia in tail-flick test",C57BL/6J mice,> 30 mg/kg
CC[C@H]1C[C@H]2C[C@H]3c4[nH]c5ccc(O)cc5c4CCN(C2)C13 [noribogaine],pro-arrhythmia effects,[1],exhibits pro-arrhytmia effects
same,hERG block IC50,[2],low micromolar
same,action potential repolarization,human cardiomyocytes,significantly delayed action potential repolarization
CCC1CC2CC3c4oc5ccc(O)cc5c4CCN(C2)C13 (centres unmarked) [oxa-noribogaine],EC50,rKOR,< 10 nM
same,Emax,"rKOR; cAMP, read-out: % efficacy of control agonist (KOR: U-50,488) maximal response at 1 μM",102%
same,pro-arrhythmia effects,[1],no pro-arrhytmia effects even at high concentrations
same,IC50,hSERT,900 ± 120 nM
same,IC50,rVMAT2,670 ± 110 nM
same,morphine intake in the following three sessions,male F344 rats [3]; after first 10 mg/kg,approximately 40 % of baseline levels
same,morphine intake recovered after administration,male F344 rats [3]; after first 40 mg/kg,approximately 60 % of VEH levels
same,morphine intake at the end of the dosing regimen,male F344 rats [3]; after last 5 mg/kg,approximately 8 % of baseline levels
same,morphine intake in the following session,male F344 rats [3]; after second 10 mg/kg,approximately 25 % of baseline levels
same,morphine intake recovered over following three days,male F344 rats [3]; after second 40 mg/kg,approximately 50%
same,morphine intake eighteen days following the last administration,male F344 rats [3]; eighteen days after last 5 mg/kg,40%
same,morphine intake in the session following administration,male F344 rats [3]; first 10 mg/kg,approximately 4 infusions
epi-oxa-noribogaine,"morphine intake, duration of reduction",male F344 rats [4],significantly decreased morphine self-administration for three sessions
